Test results: patent US6043279A, “Compounds having selective activity for retinoid X receptors, and means for modulation of processes mediated by retinoid X receptors” (priority 1997, dated 2000)

Columns and labels:
Assay type in all cases: cell-based
[1] = target: T1, RARβ (Homo sapiens, UniProt P10826); experiment: co-transfection (cis-trans) assay in CV-1 cells, RARβ; details: for Emax: CV-1, maximal response relative to all-trans-retinoic acid at 10^-5 M, read-out: Efficacy RARβ; for EC50: CV-1 cells, luciferase reporter, concentration giving 50% of maximal observed response, read-out: Potency (nM) RARβ
T1 construct: expressed in transfected cells; host or cells: CV-1 (monkey kidney)
T1 sequence (P10826 1-448 isoform P10826-2): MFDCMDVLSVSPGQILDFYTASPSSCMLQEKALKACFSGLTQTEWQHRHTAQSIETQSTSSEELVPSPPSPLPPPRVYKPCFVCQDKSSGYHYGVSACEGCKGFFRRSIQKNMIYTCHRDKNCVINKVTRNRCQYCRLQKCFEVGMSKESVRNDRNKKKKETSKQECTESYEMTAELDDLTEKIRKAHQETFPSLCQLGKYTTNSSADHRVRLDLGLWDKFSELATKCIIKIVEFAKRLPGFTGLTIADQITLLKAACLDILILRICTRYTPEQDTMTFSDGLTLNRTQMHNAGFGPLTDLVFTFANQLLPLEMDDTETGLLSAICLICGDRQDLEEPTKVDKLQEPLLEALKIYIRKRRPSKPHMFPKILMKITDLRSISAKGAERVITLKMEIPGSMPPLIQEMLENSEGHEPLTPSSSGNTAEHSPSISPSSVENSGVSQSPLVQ
Excerpt: (§1) The co-transfection assay provides a mechanism to evaluate the ability of a compound to modulate the transcription response initiated by an intracellular receptor. […] Berger et al., J. Steroid Biochem. Molec.
(§2) Briefly, the co-transfection assay involves the introduction of two plasmids by transient transfection into a retinoid receptor-negative mammalian cell background. The first plasmid contains a retinoid receptor cDNA and directs constitutive expression of the encoded receptor. The second plasmid contains a cDNA that encodes for a readily quantifiable protein, e.g., firefly luciferase or chloramphenicol acetyl transferase (CAT), under control of a promoter containing a retinoid acid response element, which confers retinoid dependence on the transcription of the reporter. In this co-transfection assay, all retinoid receptors respond to all-trans-retinoic acid in a similar fashion. This assay can be used to accurately measure efficacy and potency of retinoic acid and synthetic retinoids as ligands that interact with the individual retinoid receptor subtypes.
(§3) Accordingly, synthetic retinoid compounds of the current invention were evaluated for their interaction with retinoid receptor subtypes using the co-transfection assay in which CV-1 cells were co-transfected with one of the retinoid receptor subtypes, a reporter construct, and an internal control to allow normalization of the response for transfection efficiency. The following example is illustrative.
(§4) Retinoids: All-trans-retinoic acid (RA) and 13-cis-retinoic acid (13-cis-RA) were obtained from Sigma. […] Retinoids were dissolved in dimethylsulfoxide for use in the transcriptional activation assays.
(§5) Co-transfection Assay In CV-1 Cells: A monkey kidney cell line, CV-1, was used in the cis-trans assay. Cells were transfected with two plasmids. […] The cis-vector contains an easily assayable gene product, in this case the firefly luciferase, coupled to a retinoid-responsive promoter, i.e., an RARE or RXRE. Addition of retinoic acid or an appropriate synthetic retinoid results in the formation of a retinoid-RAR or -RXR complex that activates the expression of luciferase gene, causing light to be emitted from cell extracts. The level of luciferase activity is directly proportional to the effectiveness of the retinoid-receptor complex in activating gene expression. This sensitive and reproducible co-transfection approach permits the identification of retinoids that interact with the different receptor isoforms.
(§6) Cells were cultured in DMEM supplemented with 10% charcoal resin-stripped fetal bovine serum, and experiments were conducted in 96-well plates. […] Cells were transfected for 6 h and then washed to remove the precipitate. The cells were then incubated for 36 h with or without retinoid. […]

[2] = target: T2, RARγ (Homo sapiens, UniProt P13631); experiment: co-transfection (cis-trans) assay in CV-1 cells, RARγ; details: for Emax: CV-1, maximal response relative to all-trans-retinoic acid at 10^-5 M, read-out: Efficacy RARγ; for EC50: CV-1 cells, luciferase reporter, concentration giving 50% of maximal observed response, read-out: Potency (nM) RARγ
T2 construct: expressed in transfected cells; host or cells: CV-1 (monkey kidney)
T2 sequence (P13631 1-454): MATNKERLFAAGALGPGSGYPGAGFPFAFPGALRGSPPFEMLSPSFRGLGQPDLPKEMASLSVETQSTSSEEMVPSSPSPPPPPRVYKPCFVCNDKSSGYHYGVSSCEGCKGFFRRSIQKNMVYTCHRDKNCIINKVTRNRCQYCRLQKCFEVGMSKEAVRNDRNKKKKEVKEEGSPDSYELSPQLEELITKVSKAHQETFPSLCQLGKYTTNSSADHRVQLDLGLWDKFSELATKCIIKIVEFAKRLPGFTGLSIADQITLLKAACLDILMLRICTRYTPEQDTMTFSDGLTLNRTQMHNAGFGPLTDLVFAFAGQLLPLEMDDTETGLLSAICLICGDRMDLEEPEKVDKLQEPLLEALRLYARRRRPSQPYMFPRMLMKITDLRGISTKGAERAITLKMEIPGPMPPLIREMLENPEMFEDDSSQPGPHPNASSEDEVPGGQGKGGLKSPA
Excerpt: as §1, §2, §3, §4, §5, §6

[3] = target: T3, RXRγ (Mus musculus, UniProt P28705); experiment: co-transfection (cis-trans) assay in CV-1 cells, RXRγ; details: for Emax at 10 µM: CV-1, maximal response relative to all-trans-retinoic acid at 10^-5 M, read-out: Efficacy RXRγ; for EC50: CV-1 cells, luciferase reporter, concentration giving 50% of maximal observed response, read-out: Potency (nM) RXRγ
T3 construct: expressed in transfected cells; host or cells: CV-1 (monkey kidney)
T3 sequence (P28705 1-463): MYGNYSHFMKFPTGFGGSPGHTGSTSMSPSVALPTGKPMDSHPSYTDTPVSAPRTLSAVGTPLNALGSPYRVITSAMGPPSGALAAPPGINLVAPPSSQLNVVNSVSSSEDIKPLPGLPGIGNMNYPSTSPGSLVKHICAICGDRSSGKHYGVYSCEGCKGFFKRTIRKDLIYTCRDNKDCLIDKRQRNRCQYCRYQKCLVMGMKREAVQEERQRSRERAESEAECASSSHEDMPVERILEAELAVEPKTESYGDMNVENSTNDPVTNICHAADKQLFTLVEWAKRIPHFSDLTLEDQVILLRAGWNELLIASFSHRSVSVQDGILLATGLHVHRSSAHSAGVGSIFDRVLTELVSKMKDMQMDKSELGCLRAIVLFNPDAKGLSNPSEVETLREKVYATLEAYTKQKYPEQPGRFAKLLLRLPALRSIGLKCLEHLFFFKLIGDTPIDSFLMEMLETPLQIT
Excerpt: as §1, §2, §3, §4, §5, §6

| Emax [1] [%] | EC50 [1] [nM] | Emax [2] [%] | EC50 [2] [nM] | Emax at 10 µM [3] [%] | EC50 [3] [nM] | SMILES |
| --- | --- | --- | --- | --- | --- | --- |
| < 2 | > 10000 | < 2 | > 10000 | 50 | 190 | Cc1cc(C(C)(C)C)ccc1C(=NO)c1ccc(C(=O)O)cc1 [Compound 137, 4-[(2-methyl-4-t-butylphenyl)carbonyl]benzoic acid oxime] |
| < 2 | > 10000 | < 2 | > 10000 | 91 | 290 | C=C(c1ccc(C(=O)O)cc1)c1ccc(C(C)(C)C)cc1C [Compound 133, 4-[1-(2-methyl-4-t-butylphenyl)ethenyl]benzoic acid] |
